Converted amounts (≈) assume the structure as drawn.
Columns and labels:
[1] = Thermodynamic solubility (shake flask); format: physicochemical; conditions: aqueous phosphate buffer pH 7.4, 24 hours
physchem = conditions: 1-octanol/aqueous buffer, pH 7.4
[2] = Human plasma protein binding (equilibrium dialysis); format: in vitro ADME; conditions: dialysis 18 hours
[3] = molecular target: Estrogen Receptor (ERα) in MCF-7 cells (Homo sapiens (Human), UniProt P03372); test: MCF-7 ER down-regulation assay (immuno-fluorescence); format: cell-based; conditions: for IC50: 18-22 hours incubation; for % downregulation: shown in brackets where not >90%
[4] = aqueous phosphate buffer, 25 °C, pH 7.4, aqueous buffer, thermodynamic from solid

Chain of Estrogen Receptor (ERα) in MCF-7 cells (P03372 whole entry): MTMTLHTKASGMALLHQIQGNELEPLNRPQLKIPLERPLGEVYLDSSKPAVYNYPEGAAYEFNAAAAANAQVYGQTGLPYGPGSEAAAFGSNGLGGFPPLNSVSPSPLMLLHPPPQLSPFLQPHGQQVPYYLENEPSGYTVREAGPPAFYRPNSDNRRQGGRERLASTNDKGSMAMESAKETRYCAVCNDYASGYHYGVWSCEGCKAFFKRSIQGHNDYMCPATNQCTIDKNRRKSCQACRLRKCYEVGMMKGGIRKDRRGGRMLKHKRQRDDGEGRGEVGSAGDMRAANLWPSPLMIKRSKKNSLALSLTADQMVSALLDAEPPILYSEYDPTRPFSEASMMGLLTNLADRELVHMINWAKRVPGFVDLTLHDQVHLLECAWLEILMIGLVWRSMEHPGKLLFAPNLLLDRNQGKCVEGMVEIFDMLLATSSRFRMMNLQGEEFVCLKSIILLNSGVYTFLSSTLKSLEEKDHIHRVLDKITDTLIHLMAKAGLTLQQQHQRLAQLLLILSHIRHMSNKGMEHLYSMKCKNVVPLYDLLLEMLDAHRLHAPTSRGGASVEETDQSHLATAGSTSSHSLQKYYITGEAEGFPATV

Row | solubility at 24 h [1, 4] [µM] | logD (physchem) | Human plasma protein binding (% free) [2] [% free] | IC50 [3] [nM] | % downregulation [3] | solubility at 24 h ([1]; 25° C.) [µM] | SMILES
1 | 83 (≈ 41.1 µg/mL) | 3.4 | 1.5 | – | – | – | C[C@@H]1Cc2c([nH]c3ccccc23)[C@@H](c2c(F)cc(OCCNCCCF)cc2F)N1C[C@H](F)CF (single isomer, unassigned) [Example 15]
2 | 629 (≈ 319 µg/mL) | 2.6 | 3.9 | 0.086 | (85%) | – | C[C@@H]1Cc2c([nH]c3ccccc23)[C@@H](c2c(F)cc(OCCNCCCF)cc2F)N1CC(C)(F)CO (single isomer, unassigned) [Example 17]
3 | – | 3 | 1.6 | 0.36 | – | 135 (≈ 62 µg/mL) | C[C@@H]1Cc2c([nH]c3ccccc23)[C@@H](c2ccc(OCCNCCCF)cc2)N1CC(F)CF (single isomer, unassigned) [Example 25]
4 | 12 (≈ 5.95 µg/mL) | 4.1 | 0.61 | – | – | – | C[C@@H]1Cc2c([nH]c3ccccc23)[C@@H](c2c(F)cc(OCCNCCCF)cc2F)N1CC(C)(F)F [Example 12, N-(2-(4-((1R,3R)-2-(2,2-difluoropropyl)-3-methyl-2,3,4,9-tetrahydro-1H-pyrido[3,4-b]indol-1-yl)-3,5-difluorophenoxy)ethyl)-3-fluoropropan-1-amine]
5 | 150 (≈ 72.2 µg/mL) | 3.4 | 1.6 | – | – | – | C[C@@H]1Cc2c([nH]c3ccccc23)[C@@H](c2c(F)cc(OCCNCCCF)cc2F)N1CC(F)F [Example 13, N-(2-(4-((1R,3R)-2-(2,2-difluoroethyl)-3-methyl-2,3,4,9-tetrahydro-1H-pyrido[3,4-b]indol-1-yl)-3,5-difluorophenoxy)ethyl)-3-fluoropropan-1-amine]
6 | 11 (≈ 5.56 µg/mL) | > 4.4 | 0.56 | 0.41 | (68%) | – | CC(CNCCCF)Oc1cc(F)c([C@@H]2c3[nH]c4ccccc4c3C[C@@H](C)N2CC(C)(C)F)c(F)c1 (stereo partly drawn) [Example 19, 2-(3,5-difluoro-4-((1R,3R)-2-(2-fluoro-2-methylpropyl)-3-methyl-2,3,4,9-tetrahydro-1H-pyrido[3,4-b]indol-1-yl)phenoxy)-N-(3-fluoropropyl)propan-1-amine]
7 | 18 (≈ 9.39 µg/mL) | > 3.9 | <0.30 | 0.26 | – | – | C[C@@H]1Cc2c([nH]c3ccccc23)[C@@H](c2c(F)cc(OCC(CO)NCCCF)cc2F)N1CC(C)(C)F (stereo partly drawn) [Example 20, 3-(3,5-difluoro-4-((1R,3R)-2-(2-fluoro-2-methylpropyl)-3-methyl-2,3,4,9-tetrahydro-1H-pyrido[3,4-b]indol-1-yl)phenoxy)-2-((3-fluoropropyl)amino)propan-1-ol]
8 | 47 (≈ 24.5 µg/mL) | 3.9 | 0.61 | – | – | – | COCC(C)(F)CN1[C@H](c2c(F)cc(OCCNCCCF)cc2F)c2[nH]c3ccccc3c2C[C@H]1C (stereo partly drawn) [Example 50, N-(2-(3,5-difluoro-4-((1R,3R)-2-(2-fluoro-3-methoxy-2-methylpropyl)-3-methyl-2,3,4,9-tetrahydro-1H-pyrido[3,4-b]indol-1-yl)phenoxy)ethyl)-3-fluoropropan-1-amine]
9 | 96 (≈ 49.9 µg/mL) | 3.4 | – | – | – | – | C[C@@H]1Cc2c([nH]c3ccccc23)[C@@H](c2c(F)cc(OCCNCCCF)cc2F)N1CC1(CF)COC1 [Example 72, N-(2-(3,5-difluoro-4-((1R,3R)-2-((3-(fluoromethyl)oxetan-3-yl)methyl)-3-methyl-2,3,4,9-tetrahydro-1H-pyrido[3,4-b]indol-1-yl)phenoxy)ethyl)-3-fluoropropan-1-amine]

The next lines start with the molecule.

Row | SMILES | solubility at 24 h [1, 4] [µM] | logD (physchem) | Human plasma protein binding (% free) [2] [% free] | IC50 [3] [nM] | % downregulation [3] | solubility at 24 h ([1]; 25° C.) [µM]
10 | C[C@@H]1Cc2c([nH]c3ccccc23)[C@@H](c2ccc(OCCNCCCF)cc2F)N1CC1(F)CC1 [Example 21, 3-fluoro-N-(2-(3-fluoro-4-((1R,3R)-2-((1-fluorocyclopropyl)methyl)-3-methyl-2,3,4,9-tetrahydro-1H-pyrido[3,4-b]indol-1-yl)phenoxy)ethyl)propan-1-amine] | 149 (≈ 70.3 µg/mL) | 3.4 | 2.1 | 0.48 | – | –
11 | C[C@@H]1Cc2c([nH]c3ccccc23)[C@@H](c2ccc(OCCNCCCF)cc2F)N1CC1(F)COC1 [Example 22, 3-fluoro-N-(2-(3-fluoro-4-((1R,3R)-2-((3-fluorooxetan-3-yl)methyl)-3-methyl-2,3,4,9-tetrahydro-1H-pyrido[3,4-b]indol-1-yl)phenoxy)ethyl)propan-1-amine] | 197 (≈ 96.1 µg/mL) | 3 | 6.1 | – | – | –
12 | C[C@@H]1Cc2c([nH]c3ccccc23)[C@@H](c2ccc(OCCNCCCF)cc2)N1CC1(F)CC1 [Example 23, 3-fluoro-N-(2-(4-((1R,3R)-2-((1-fluorocyclopropyl)methyl)-3-methyl-2,3,4,9-tetrahydro-1H-pyrido[3,4-b]indol-1-yl)phenoxy)ethyl)propan-1-amine] | 122 (≈ 55.3 µg/mL) | 3.3 | 1.7 | – | – | –
13 | C[C@@H]1Cc2c([nH]c3ccccc23)[C@@H](c2ccc(OCCNCCCF)cc2)N1CC1(F)COC1 [Example 24, 3-fluoro-N-(2-(4-((1R,3R)-2-((3-fluorooxetan-3-yl)methyl)-3-methyl-2,3,4,9-tetrahydro-1H-pyrido[3,4-b]indol-1-yl)phenoxy)ethyl)propan-1-amine] | 370 (≈ 174 µg/mL) | – | – | – | – | –
14 | C[C@@H]1Cc2c([nH]c3ccccc23)[C@@H](c2ccc(OC[C@H](C)NCCCF)cc2)N1CC1(F)COC1 [Example 27, 3-fluoro-N-((S)-1-(4-((1R,3R)-2-((3-fluorooxetan-3-yl)methyl)-3-methyl-2,3,4,9-tetrahydro-1H-pyrido[3,4-b]indol-1-yl)phenoxy)propan-2-yl)propan-1-amine] | 281 (≈ 136 µg/mL) | 3 | 5.2 | 1.5 | (79%) | –
15 | C[C@@H]1Cc2c([nH]c3ccccc23)[C@@H](c2ccc(OCCNCCCF)cc2C#N)N1CC1(F)CC1 [Example 29, 2-((1R,3R)-2-((1-fluorocyclopropyl)methyl)-3-methyl-2,3,4,9-tetrahydro-1H-pyrido[3,4-b]indol-1-yl)-5-(2-((3-fluoropropyl)amino)ethoxy)benzonitrile] | – | – | – | 19 | (57%) | –
16 | COc1cc(OCCNCCCF)ccc1[C@@H]1c2[nH]c3ccccc3c2C[C@@H](C)N1CC(F)F [Example 43, N-(2-(4-((1R,3R)-2-(2,2-Difluoroethyl)-3-methyl-2,3,4,9-tetrahydro-1H-pyrido[3,4-b]indol-1-yl)-3-methoxyphenoxy)ethyl)-3-fluoropropan-1-amine] | 163 (≈ 77.5 µg/mL) | – | – | – | – | –
17 | C[C@@H]1Cc2c([nH]c3ccccc23)[C@@H](c2ccc(OCCNCCCF)cc2F)N1CC(C)(F)F [Example 55, N-(2-(4-((1R,3R)-2-(2,2-difluoropropyl)-3-methyl-2,3,4,9-tetrahydro-1H-pyrido[3,4-b]indol-1-yl)-3-fluorophenoxy)ethyl)-3-fluoropropan-1-amine] | 32 (≈ 15.3 µg/mL) | 4.1 | – | 0.2 | (89%) | –
18 | COc1cc(OCCNCCCF)ccc1[C@@H]1c2[nH]c3ccccc3c2C[C@@H](C)N1CC(F)(F)CO [Example 58, 2,2-difluoro-3-((1R,3R)-1-(4-(2-((3-fluoropropyl)amino)ethoxy)-2-methoxyphenyl)-3-methyl-1,3,4,9-tetrahydro-2H-pyrido[3,4-b]indol-2-yl)propan-1-ol] | 418 (≈ 211 µg/mL) | – | – | – | – | –
19 | COc1cc(NCCNCCCF)ncc1[C@@H]1c2[nH]c3ccccc3c2C[C@@H](C)N1CC(F)(F)CO [Example 65, 2,2-difluoro-3-((1R,3R)-1-(6-((2-((3-fluoropropyl)amino)ethyl)amino)-4-methoxypyridin-3-yl)-3-methyl-1,3,4,9-tetrahydro-2H-pyrido[3,4-b]indol-2-yl)propan-1-ol] | 911 (≈ 461 µg/mL) | 2.1 | 14 | – | – | –
20 | COc1cc(NCCNCCCF)ncc1[C@@H]1c2[nH]c3ccccc3c2C[C@@H](C)N1CC(F)F [Example 67, N1-(5-((1R,3R)-2-(2,2-difluoroethyl)-3-methyl-2,3,4,9-tetrahydro-1H-pyrido[3,4-b]indol-1-yl)-4-methoxypyridin-2-yl)-N2-(3-fluoropropyl)ethane-1,2-diamine] | > 1000 | 2.5 | – | 0.87 | – | –
21 | COc1cc(NCCNCCCF)ncc1[C@@H]1c2[nH]c3ccccc3c2C[C@@H](C)N1CC(C)(F)F [Example 68, N1-(5-((1R,3R)-2-(2,2-difluoropropyl)-3-methyl-2,3,4,9-tetrahydro-1H-pyrido[3,4-b]indol-1-yl)-4-methoxypyridin-2-yl)-N2-(3-fluoropropyl)ethane-1,2-diamine] | 438 (≈ 214 µg/mL) | 3.1 | – | 0.33 | – | –
22 | COc1nc(NCCNCCCF)ccc1[C@@H]1c2[nH]c3ccccc3c2C[C@@H](C)N1CC(F)F [Example 76, N1-(5-((1R,3R)-2-(2,2-difluoroethyl)-3-methyl-2,3,4,9-tetrahydro-1H-pyrido[3,4-b]indol-1-yl)-6-methoxypyridin-2-yl)-N2-(3-fluoropropyl)ethane-1,2-diamine] | 335 (≈ 159 µg/mL) | 3 | – | 0.32 | – | –
23 | COc1nc(NCCNCCCF)ccc1[C@@H]1c2[nH]c3ccccc3c2C[C@@H](C)N1CC(C)(F)F [Example 78, N1-(5-((1R,3R)-2-(2,2-difluoropropyl)-3-methyl-2,3,4,9-tetrahydro-1H-pyrido[3,4-b]indol-1-yl)-6-methoxypyridin-2-yl)-N2-(3-fluoropropyl)ethane-1,2-diamine] | 192 (≈ 94 µg/mL) | 4 | – | 0.21 | – | –

From patent US10149839B2, “Chemical compounds” (AstraZeneca AB, priority 2016, dated 2018)
